According to EP0551675A1, “Oral hygiene compositions containing antiplaque agents” (UNILEVER N.V., priority 1991, dated 1993):
Values after ≈ are worked out from the molar mass of the structure shown. Read-outs that look alike come from different tables or passages of the source.

What was measured:
[1] = Krafft point of a 1% dispersion in water; format: physicochemical; conditions: 1% dispersion of the surfactant in water
Method: The temperature at and above which surfactants begin to form micelles instead of precipitates is referred to as Krafft point (Tk) and at this temperature the solubility of a surfactant becomes equal to its CMC.
Krafft point was measured by preparing a 1% dispersion of the surfactant in water. If the surfactant was soluble at room temperature, the solution was cooled to 0°C. […] If it precipitated out, the solution was slowly warmed with stirring in a water bath. The temperature at which the precipitate dissolved was determined to be the Krafft point.
If the Krafft point was above room temperature, the solution was first heated rapidly to dissolve all the surfactant. It was then cooled until precipitation occurred, and was then slowly warmed to determine the Krafft point described above.

Actinomyces naeslundii = experiment: Antimicrobial activity determination (MIC); format: cell-based; conditions: for MIC: read-out: Minimimum Inhibitory Concentrations
Method: (§1) The antimicrobial activity of the targeted agents was assessed by determining the minimum inhibitory concentration (MIC). Pure cultures of various strains of oral bacterial species as indicated in Table 3 were combined with serial dilutions of the targeted agents in beef heart infusion broth (BHI); starting bacterial concentrations were approximately 1.0 x 10E6 colony forming units (CFU) per ml. The mixtures were incubated aerobically at 37 degrees C and the optical density (540 nm, path length 1cm) of the cultures was measured at 0.0, 24.0 and 48.0 hr using Bausch and Lomb Spec 20 variable wavelength spectrophotometer.

Streptococcus sanguis = experiment: Antimicrobial activity determination (MIC); format: cell-based; conditions: for MIC: Streptococcus, read-out: Minimimum Inhibitory Concentrations
Method: as §1

Candida albicans = experiment: Antimicrobial activity determination (MIC); format: cell-based; conditions: for MIC: read-out: Minimimum Inhibitory Concentrations
Method: as §1

Prevotella intermedius = experiment: Antimicrobial activity determination (MIC); format: cell-based; conditions: read-out: Minimimum Inhibitory Concentrations
Method: as §1

Neisseria subflava = experiment: Antimicrobial activity determination (MIC); format: cell-based; conditions: for MIC: read-out: Minimimum Inhibitory Concentrations
Method: as §1

Veillonella dispar = experiment: Antimicrobial activity determination (MIC); format: cell-based; conditions: read-out: Minimimum Inhibitory Concentrations
Method: as §1

Streptococcus sobrinus = experiment: Antimicrobial activity determination (MIC); format: cell-based; conditions: for MIC: read-out: Minimimum Inhibitory Concentrations
Method: as §1

Porphyromonas gingivalis = experiment: Antimicrobial activity determination (MIC); format: cell-based; conditions: read-out: Minimimum Inhibitory Concentrations
Method: as §1

[2] = test system: several species of oral bacteria; experiment: MIC assays on several species of oral bacteria (stated in words); format: cell-based; conditions: result in words
Method: as §1

[3] = test system: Actinomyces naeslundii PK29 and Streptococcus sanguis G9B; experiment: Bacterial coaggregation assay; format: cell-based; conditions: for inhibition of coaggregation between A. naeslundii and S. sanguis: result in words
Method: A bacterial coaggregation assay was used to determine the ability of various amino sugars to interfere with lectin-mediated binding among various bacterial species. For instance, many Actinomyces naeslundii strains coaggregate with Streptococcus sanguis as a result of binding between a lectin produced by the A. naeslundii cells and β-galactose-containing structures on the surface of the streptococci. For the present assay, A. naeslundii PK29 and S. sanguis G9B were cultured overnight in a medium containing 2.5% tryptone, 1.5% yeast extract, 0.1% magnesium sulfate, and 1.0% fructose. The cells were then washed twice in a 1.0 mM potassium phosphate buffer (pH = 6.8) containing 1.0 mM calcium chloride, 0.1 mM magnesium chloride, and 50.0 mM potassium chloride (buffered KCl), after which they were resuspended in buffered KCl at an optical density (540 nm) of 1.5. The coaggregations were performed by combining 0.5 ml of each bacterial suspension with 0.2 ml of 5.0% bovine serum albumin (BSA) and 0.8 ml of an appropriate concentration of a targeted anti-plaque agent in 3.0 ml capped polystyrene cuvettes. The cuvettes (path length 1 cm) were gently inverted at room temperature, and the optical density (540 nm) was determined as a function of time (2.0 min intervals; 20 min). The instrument employed to measure optical density was a variable wavelength spectrophotometer (Gilson Response^(R) Spectrophotometer, bought from Gilson).
The activity of a tested compound was expressed as % inhibition relative to buffer controls (i.e., % inhibition = [1 - change in optical density (inhibitor)]/ change in optical density [control]) x 100 [formula] .
The ability of various aldobionamide compounds (prepared as described in Example 1) to target to β-galactose-specific binding proteins on A. naeslundii and thus to interfere with coaggregation interactions between A. naeslundii and S. sanquis was investigated. Coaggregation of Actinomyces naeslundii PK29 and Streptococcus sanguis G9B was performed as described in the Methods section (Bacterial Coaggregation Assay) above. % Inhibition was calculated as 1.0 - the change in optical density (540 nm) in the sample containing compound tested/the change in optical density in the coaggregation buffer control. The inhibitory activity of the antiplaque agents within the scope of the invention was compared to the inhibitory activity of lactobionic acid and N-alkyl gluconamides, which are not within the scope of the invention. The gluconamides were prepared analogously to N-alkyl lactobionamides from glucono-δ-lactone (Sigma Chemicals) and the requisite aliphatic amine.

[4] = BHI broth, aerobic, 37 degrees C
[5] = Streptococcus sanguis, BHI broth, aerobic, 37 degrees C
[6] = Prevotella intermedius, BHI broth, aerobic, 37 degrees C

Compound	MIC (Actinomyces naeslundii; [4])	MIC (Streptococcus sanguis; [5])	MIC (Candida albicans; [4])	MIC (Prevotella intermedius; [6])	MIC (Neisseria subflava; [4])	MIC (Veillonella dispar; [4])	MIC (Streptococcus sobrinus; [4])	MIC (Porphyromonas gingivalis; [4])	Minimimum Inhibitory Concentrations (Actinomyces naeslundii; [4])	Minimimum Inhibitory Concentrations (Streptococcus sanguis; [5])	Minimimum Inhibitory Concentrations (Streptococcus sobrinus; [4])	other results
CCCCCCCCCCCCCCNC(=O)[C@H](O)[C@@H](O)[C@H](O[C@@H]1O[C@H](CO)[C@H](O)[C@H](O)[C@H]1O)[C@H](O)CO [Tetradecyl lactobionamide, N-tetradecyl lactobionamide]	15 µg/mL (≈ 27.1 µM)	30 µg/mL (≈ 54.2 µM)	30 µg/mL (≈ 54.2 µM)	8 µg/mL (≈ 14.4 µM)	60 µg/mL (≈ 108 µM)	< 8 µg/mL	125 µg/mL (≈ 226 µM)					Krafft Point [1]: 46 °C
CCCNC(=O)[C@H](O)[C@@H](O)[C@H](O[C@@H]1O[C@H](CO)[C@H](O)[C@H](O)[C@H]1O)[C@H](O)CO [Propyl lactobionamide, N-propyl lactobionamide]	> 5000 µg/mL	> 1000 µg/mL	> 1000 µg/mL	> 1000 µg/mL	> 1000 µg/mL	> 1000 µg/mL	> 5000 µg/mL	> 1000 µg/mL				
O=C(O)[C@H](O)[C@@H](O)[C@H](O[C@@H]1O[C@H](CO)[C@H](O)[C@H](O)[C@H]1O)[C@H](O)CO [Dodecyl ammonium lactobionate, Dodecylammonium lactobionate]				16 µg/mL	125 µg/mL	16 µg/mL			0.003 % w/v	0.006 % w/v	0.003 % w/v	anti-microbial activity [2]: significant anti-microbial activity
CCCCCCCCCCCCCCN.Cl [tetradecyl ammonium hydrochloride, reference compound]												anti-microbial activity [2]: had antibacterial activity; inhibition of coaggregation between A. naeslundii and S. sanguis [3]: inhibited coaggregation
CCCCCCCCCCNC(=O)[C@H](O)[C@@H](O)[C@H](O)[C@H](O)CO [Decylgluconamide, reference compound]	> 5000 µg/mL	> 5000 µg/mL					> 5000 µg/mL					
CCCCCNC(=O)[C@H](O)[C@@H](O)[C@H](O[C@@H]1O[C@H](CO)[C@H](O)[C@H](O)[C@H]1O)[C@H](O)CO [Pentyl lactobionmamide, N-pentyl lactobionamide]	> 5000 µg/mL	> 1000 µg/mL	> 1000 µg/mL	> 1000 µg/mL	> 1000 µg/mL	> 1000 µg/mL	> 5000 µg/mL	> 1000 µg/mL				
O=C(O)[C@H](O)[C@@H](O)[C@H](O[C@@H]1O[C@H](CO)[C@H](O)[C@H](O)[C@H]1O)[C@H](O)CO [Tetradecyl ammonium Lactobionate, Tetradecylammonium lactobionate]			120 µg/mL						0.006 % w/v	0.0016 % w/v	0.0125 % w/v	anti-microbial activity [2]: significant anti-microbial activity; inhibition at 500 µM ([3]; Actinomyces naeslundii, 0.5 mMol/L, coaggregation of A. naeslundii PK29 and S. sanguis G9B, relative to buffer control, read-out: Percent Inhibition): 0%; inhibition at 700 µM ([3]; Actinomyces naeslundii, 0.7 mMol/L, coaggregation of A. naeslundii PK29 and S. sanguis G9B, relative to buffer control, read-out: Percent Inhibition): 11%; inhibition at 900 µM ([3]; Actinomyces naeslundii, 0.9 mMol/L, coaggregation of A. naeslundii PK29 and S. sanguis G9B, relative to buffer control, read-out: Percent Inhibition): 66%; inhibition at 1400 µM ([3]; Actinomyces naeslundii, 1.4 mMol/L, coaggregation of A. naeslundii PK29 and S. sanguis G9B, relative to buffer control, read-out: Percent Inhibition): 99%; inhibition at 1800 µM ([3]; Actinomyces naeslundii, 1.8 mMol/L, coaggregation of A. naeslundii PK29 and S. sanguis G9B, relative to buffer control, read-out: Percent Inhibition): 100%; inhibition of coaggregation between A. naeslundii and S. sanguis [3]: effective inhibitor of coaggregation
CCCCCCCCCCCCCCCCNC(=O)[C@H](O)[C@@H](O)[C@H](O[C@@H]1O[C@H](CO)[C@H](O)[C@H](O)[C@H]1O)[C@H](O)CO [Hexadecyl lactobionamide, N-hexadecyl lactobionamide]	60 µg/mL (≈ 103 µM)	125 µg/mL (≈ 215 µM)	1000 µg/mL (≈ 1720 µM)	> 500 µg/mL	1000 µg/mL (≈ 1720 µM)	> 500 µg/mL	1000 µg/mL (≈ 1720 µM)	> 500 µg/mL				
Tetradecyl-glycyl-lactobionamide									0.0008 % w/v	0.003 % w/v	0.05 % w/v	Minimimum Inhibitory Concentrations (Candida albicans; [4]): 0.05 % w/v; Minimimum Inhibitory Concentrations (Neisseria subflava; [4]): 0.05 % w/v
CCCCCCCCCCCCOS(=O)(=O)[O-].[Na+] [Sodium dodecyl sulfate, reference compound]												MIC (Actinomyces naeslundii): 8 µg/mL; MIC (Streptococcus sanguis): 15 µg/mL; MIC (Candida albicans): 60 µg/mL; MIC (Porphyromonas gingivalis): 2 µg/mL; MIC (Prevotella intermedius; Prevotella): 16 µg/mL; MIC (Neisseria subflava): 8 µg/mL; MIC (Veillonella dispar): 60 µg/mL; MIC (Streptococcus sobrinus): 60 µg/mL
CCCCCCCCNC(=O)[C@H](O)[C@@H](O)[C@H](O[C@@H]1O[C@H](CO)[C@H](O)[C@H](O)[C@H]1O)[C@H](O)CO [Octyl lactobionamide, N-octyl lactobionamide]	> 5000 µg/mL	> 1000 µg/mL	> 1000 µg/mL	> 1000 µg/mL	> 1000 µg/mL	> 1000 µg/mL	> 5000 µg/mL	> 1000 µg/mL				
O=C(O)[C@H](O)[C@@H](O)[C@H](O[C@@H]1O[C@H](CO)[C@H](O)[C@H](O)[C@H]1O)[C@H](O)CO [Lactobionic acid, reference compound]									>0.5 % w/v	>0.5 % w/v	>0.5 % w/v	
CCCCCCCCCCCCOC(=O)CCNC(=O)[C@H](O)[C@@H](O)[C@H](O[C@@H]1O[C@H](CO)[C@H](O)[C@H](O)[C@H]1O)[C@H](O)CO [Dodecyl-B-alanyl-lactobionamide, N-lactobionyl dodecyl β-alanate]	125 µg/mL (≈ 209 µM)	125 µg/mL (≈ 209 µM)	500 µg/mL (≈ 837 µM)		500 µg/mL (≈ 837 µM)		1000 µg/mL (≈ 1670 µM)					
